Where no end group is shown, it is not given here.
Key:
AFP+/HLA A2.1+ HepG2 = experiment: 4 hour 51Cr-release assay of peptide-generated CTL against HepG2; type: cell-based, human
Experimental: IL-2 was added twice weekly at 10 units/ml. […] Non-specific NK killing was assessed with the NK sensitive target K562. The CTL were also tested against the HLA A2.1-positive, AFP-positive human hepatocellular carcinoma cell line, HepG2. Referring now to Table III, there are shown the cytotoxicity results of tests for the twelve AFP peptide sequences used to generate CTL from normal donors that gave positive peptide cytotoxicity results. […] Further, new AFP49 peptide-generated CTL cultures were made using two different, normal HLA A2.1 donors. Additional targets were used to confirm that the cytotoxicity observed using AFP49 was AFP antigen-specific and class I restricted. Referring now to FIG. 1, there is shown representative data of these tests. First, to confirm that the observed cytotoxicity was class I restricted, anti-β2 microglobulin antibody was used to block the CTL-T cell receptor interaction on HepG2 cells. […] Next, to eliminate non-specific NK/LAK killing, a 40-fold excess of unlabeled (cold) K562 cells was added. […] Also, an AFP+, HLA A2.1-negative hepatocellular carcinoma cell line, Hep3B, that is, a class I-mismatched hepatocellular carcinoma cell line, was also used as a target. […] This small amount of observed Hep3B lysis was eliminated by adding an excess of cold K562 cells, in contrast to the retention of specific killing of HepG2 when cold K562 cells were added.

HLA A2.1 [1] = target: T1, HLA A2.1 (Homo sapiens, UniProt P04439, D140Y/D185E/D98H/E176V/E277Q/G131W/G231S/I119V/I121R/I166T/I218V/L300P/L318F/N151K/N90K/P208A/P217A/Q86G/Q94H/R138H/R169H/T345S); experiment: T2 cell stabilization assay; type: binding; details: peptide tested 0.1 μM-100 μM; flow cytometry with BB7.2; (n.s.) = not stable
HLA A2.1 [2] = target: T1, HLA A2.1; experiment: EBV lymphoblastoid cell off-kinetics assay; type: binding; details: for Time of Peptide Stability on Lymphoblastoid Cells: pulsed at 200 μM for 1 hour, followed 0, 2, 4 and 6 hours at 37° C., (n.s.) = not stable
Excerpt: The cells were washed at the end of each time point and stained for HLA A2 with the BB7.2 antibody.

[3] = system: M202 (HLA A2.1+/AFP-) melanoma cells transduced with AdVhAFP; experiment: chromium release assay of peptide-specific CTL against M202 cells transduced with AdVhAFP or control AdVRR5; type: cell-based, human; details: FIG. 2
[4] = system: T2 cells pulsed with the specific peptide; details: FIG. 2; T2 pulsed with specific peptide versus a different HLA A2.1 binding peptide

## FMNKFIYEI [AFP5]
AFP+/HLA A2.1+ HepG2; E:T 5:1
  AFP+/HLA A2.1+ HepG2 Cytotoxicity: 4%
AFP+/HLA A2.1+ HepG2; E:T 20:1
  AFP+/HLA A2.1+ HepG2 Cytotoxicity: 7%

## FQAITVTKL [AFP45]
AFP+/HLA A2.1+ HepG2; E:T 10:1
  AFP+/HLA A2.1+ HepG2 Cytotoxicity: 9%
AFP+/HLA A2.1+ HepG2; E:T 50:1
  AFP+/HLA A2.1+ HepG2 Cytotoxicity: 27%

## FQKLGEYYL [AFP34, residues 419-427 of hAFP]
HLA A2.1 [1]
  Minimum Concentration of Peptide to Stabilize A2 on T2 cells: 100 µM
HLA A2.1 [2]
  Time of Peptide Stability on Lymphoblastoid Cells: (n.s.)

## FVQEATYKF [AFP8, residues 54-62 of hAFP]
HLA A2.1 [1]
  Minimum Concentration of Peptide to Stabilize A2 on T2 cells: (n.s.)
HLA A2.1 [2]
  Time of Peptide Stability on Lymphoblastoid Cells: >2 h

## GVALQTMKL (listed as Homo sapiens) [AFP49L9, single amino acid substitution in position 9 of AFP49]
[3]
  killing of M202/AdVhAFP compared with AFP49 peptide-specific CTL cultures: even more effectively
  killing of M202/AdVhAFP versus M202/RR5: significantly more killing of M202 cells transduced with AdVhAFP

## GVALQTMKQ [AFP49]
AFP+/HLA A2.1+ HepG2; E:T 10:1
  AFP+/HLA A2.1+ HepG2 Cytotoxicity: 17%
AFP+/HLA A2.1+ HepG2; E:T 50:1
  AFP+/HLA A2.1+ HepG2 Cytotoxicity: 45%

## GVALQTMKV (listed as Homo sapiens) [AFP49V9, single amino acid substitution in position 9 of AFP49]
[4]
  peptide specificity of CTL culture: showed peptide specificity
[3]
  killing of M202/AdVhAFP compared with AFP49 peptide-specific CTL cultures: even more effectively
  killing of M202/AdVhAFP versus M202/RR5: significantly more killing of M202 cells transduced with AdVhAFP

## ILLWAARYD [AFP18, residues 178-186 of hAFP]
HLA A2.1 [1]
  Minimum Concentration of Peptide to Stabilize A2 on T2 cells: (n.s.)
HLA A2.1 [2]
  Time of Peptide Stability on Lymphoblastoid Cells: >6 h

## KELRESSLL [AFP16, residues 211-219 of hAFP]
HLA A2.1 [1]
  Minimum Concentration of Peptide to Stabilize A2 on T2 cells: (n.s.)
HLA A2.1 [2]
  Time of Peptide Stability on Lymphoblastoid Cells: 2 h

## KLVLDVAHV [AFP4]
AFP+/HLA A2.1+ HepG2; E:T 5:1
  AFP+/HLA A2.1+ HepG2 Cytotoxicity: 4%
AFP+/HLA A2.1+ HepG2; E:T 20:1
  AFP+/HLA A2.1+ HepG2 Cytotoxicity: 7%

## KMVKDALTAI [AFP64, residues 65-74 of hAFP]
HLA A2.1 [1]
  Minimum Concentration of Peptide to Stabilize A2 on T2 cells: 100 µM
HLA A2.1 [2]
  Time of Peptide Stability on Lymphoblastoid Cells: (n.s.)

## KQEFLINLV [AFP37]
AFP+/HLA A2.1+ HepG2; E:T 5:1
  AFP+/HLA A2.1+ HepG2 Cytotoxicity: 0%
AFP+/HLA A2.1+ HepG2; E:T 25:1
  AFP+/HLA A2.1+ HepG2 Cytotoxicity: 2%

## LLNFTESRT [AFP7]
AFP+/HLA A2.1+ HepG2; E:T 10:1
  AFP+/HLA A2.1+ HepG2 Cytotoxicity: 6%
AFP+/HLA A2.1+ HepG2; E:T 50:1
  AFP+/HLA A2.1+ HepG2 Cytotoxicity: 15%

## MKWVESIFL [AFP38]
AFP+/HLA A2.1+ HepG2; E:T 10:1
  AFP+/HLA A2.1+ HepG2 Cytotoxicity: 0%
AFP+/HLA A2.1+ HepG2; E:T 50:1
  AFP+/HLA A2.1+ HepG2 Cytotoxicity: 12%

## NLVKQKPQI [AFP23]
AFP+/HLA A2.1+ HepG2; E:T 5:1
  AFP+/HLA A2.1+ HepG2 Cytotoxicity: 2%
AFP+/HLA A2.1+ HepG2; E:T 20:1
  AFP+/HLA A2.1+ HepG2 Cytotoxicity: 15%

## PVNPGVGQC [AFP39]
AFP+/HLA A2.1+ HepG2; E:T 10:1
  AFP+/HLA A2.1+ HepG2 Cytotoxicity: 12%
AFP+/HLA A2.1+ HepG2; E:T 50:1
  AFP+/HLA A2.1+ HepG2 Cytotoxicity: 29%

## QLTSSELMAI [AFP14, residues 441-450 of hAFP]
HLA A2.1 [1]
  Minimum Concentration of Peptide to Stabilize A2 on T2 cells: 50.0 µM
HLA A2.1 [2]
  off-kinetics (in words): slow off-kinetics
  Time of Peptide Stability on Lymphoblastoid Cells: >2 h

## SLVVDETYV [AFP17, residues 514-522 of hAFP]
HLA A2.1 [1]
  Minimum Concentration of Peptide to Stabilize A2 on T2 cells: 1.0 µM
HLA A2.1 [2]
  Time of Peptide Stability on Lymphoblastoid Cells: (n.s.)

## TLSNKITEC [AFP60, residues 294-302 of hAFP]
HLA A2.1 [1]
  Minimum Concentration of Peptide to Stabilize A2 on T2 cells: 50 µM
HLA A2.1 [2]
  Time of Peptide Stability on Lymphoblastoid Cells: (n.s.)

## TMKQEFLINL [AFP22]
AFP+/HLA A2.1+ HepG2; E:T 5:1
  AFP+/HLA A2.1+ HepG2 Cytotoxicity: 9%
AFP+/HLA A2.1+ HepG2; E:T 20:1
  AFP+/HLA A2.1+ HepG2 Cytotoxicity: 24%

## YICSQQDTL [AFP28, residues 287-295 of hAFP]
HLA A2.1 [1]
  Minimum Concentration of Peptide to Stabilize A2 on T2 cells: 50 µM
HLA A2.1 [2]
  Time of Peptide Stability on Lymphoblastoid Cells: 2 h

## YIQESQALA [AFP13, residues 404-412 of hAFP]
HLA A2.1 [1]
  Minimum Concentration of Peptide to Stabilize A2 on T2 cells: 10.0 µM
HLA A2.1 [2]
  Time of Peptide Stability on Lymphoblastoid Cells: >2 h

Reference: patent US20020031520A1, “PREVENTION AND TREATMENT OF HEPATOCELLULAR CANCER” (priority 1997, published 2002)
